US6737383B1, “Herbicidal oxadiazolidines” (priority 1999, dated 2004)

Assays:
purple nutsedge = experiment: Test B pre/postemergence purple nutsedge; type: in vivo, Cyperus rotundus; conditions: for Plant response rating, Nutsedge: scale of 0 to 10 where 0 is no effect and 10 is complete control
Summary of the method: (§1)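 Test chemicals in a non-phytotoxic solvent mixture with surfactant were sprayed preemergence onto planted seeds and postemergence onto plants 2 to 18 cm tall (1- to 4-leaf stage). After twelve to sixteen days in a greenhouse, injury was visually rated against untreated controls from 0 (no effect) to 10 (complete control).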

sugar beet = experiment: Test B pre/postemergence sugar beet; type: in vivo, Beta vulgaris; conditions: for Plant response rating, Sugarbeets: scale of 0 to 10 where 0 is no effect and 10 is complete control
Summary of the method: as §1

pigweed = experiment: Test B pre/postemergence pigweed; type: in vivo, Amaranthus retroflexus; conditions: for Plant response rating, Redroot pigweed: scale of 0 to 10 where 0 is no effect and 10 is complete control
Summary of the method: as §1

giant foxtail = experiment: Test B pre/postemergence giant foxtail; type: in vivo, Setaria faberii
Summary of the method: as §1

cocklebur = experiment: Test B pre/postemergence cocklebur; type: in vivo, Xanthium strumarium
Summary of the method: as §1

morningglory = experiment: Test B pre/postemergence morningglory; type: in vivo, Ipomoea hederacea; conditions: for Plant response rating, Morningglory: scale of 0 to 10 where 0 is no effect and 10 is complete control
Summary of the method: as §1

bamyardgrass = experiment: Test B flood test barnyardgrass; type: in vivo, Echinochloa crus-galli
Summary of the method: (§2)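 Each value is a visual injury score relative to controls, with 10 meaning complete control and 0 no effect. Evaluation took place twelve to sixteen days after the 2-leaf-stage plants were treated and kept in the greenhouse.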

rape = experiment: Test B pre/postemergence rape; type: in vivo, Brassica napus; conditions: for Plant response rating, Rape: scale of 0 to 10 where 0 is no effect and 10 is complete control
Summary of the method: as §1

blackgrass = experiment: Test B pre/postemergence blackgrass; type: in vivo, Alopecurus myosuroides
Summary of the method: as §1

crabgrass = experiment: Test B pre/postemergence crabgrass; type: in vivo, Digitaria sanguinalis
Summary of the method: as §1

wheat = experiment: Test B pre/postemergence wheat; type: in vivo, Triticum aestivum; conditions: for Plant response rating, Wheat: scale of 0 to 10 where 0 is no effect and 10 is complete control
Summary of the method: as §1

rice = experiment: Test B flood test rice; type: in vivo, Oryza sativa
Summary of the method: as §2

smallflower flatsedge = experiment: Test B flood test smallflower flatsedge; type: in vivo, Cyperus difformis
Summary of the method: as §2

surinam grass = experiment: Test B pre/postemergence surinam grass; type: in vivo, Brachiaria decumbens
Summary of the method: as §1

corn = experiment: Test B pre/postemergence corn; type: in vivo, Zea mays
Summary of the method: as §1

velvetleaf = experiment: Test B pre/postemergence velvetleaf; type: in vivo, Abutilon theophrasti; conditions: for Plant response rating, Velvetleaf: scale of 0 to 10 where 0 is no effect and 10 is complete control
Summary of the method: as §1

soybean = experiment: Test B pre/postemergence soybean; type: in vivo, Glycine max; conditions: for Plant response rating, Soybean: scale of 0 to 10 where 0 is no effect and 10 is complete control
Summary of the method: as §1

wild oat = experiment: Test B pre/postemergence wild oat; type: in vivo, Avena fatua; conditions: for Plant response rating, Wild oats: scale of 0 to 10 where 0 is no effect and 10 is complete control
Summary of the method: as §1

duck salad = experiment: Test B flood test duck salad; type: in vivo, Heteranthera limosa
Summary of the method: as §2

[1] = Postemergence, Rate 250 g/ha, scale 0 to 10
[2] = Preemergence, Rate 250 g/ha, scale 0 to 10, 0 is no effect, 10 is complete control
[3] = Preemergence, Rate 500 g/ha, scale 0 to 10, 0 is no effect, 10 is complete control
[4] = Rate 62 g/ha, Postemergence, scale 0 to 10 (0 no effect, 10 complete control)
[5] = Rate 125 g/ha, Postemergence, scale 0 to 10, 0 is no effect, 10 is complete control
[6] = Postemergence, Rate 500 g/ha, scale of 0 to 10 where 0 is no effect and 10 is complete control
[7] = Preemergence, Rate 62 g/ha, scale of 0 to 10 where 0 is no effect and 10 is complete control
[8] = Preemergence, Rate 125 g/ha, scale of 0 to 10 where 0 is no effect and 10 is complete control
[9] = Rate 62 g/ha, flood test species, Pre-emergence, visual evaluation after twelve to sixteen days
[10] = Rate 125 g/ha, under heading Pre-emergence, flood test species, visual evaluation after twelve to sixteen days
[11] = Rate 250 g/ha, Pre-emergence (flood test species), scale 0 to 10, 0 is no effect, 10 is complete control
[12] = Rate 500 g/ha, Pre-emergence, flood test species, scale 0 to 10 (0 no effect, 10 complete control)

CCOC(=O)CC(C(=O)OCC)n1c(=O)on(C(=O)N(c2ccc(F)cc2F)C(C)C)c1=O (centres unmarked) [Compound 465]
Nutsedge plant response rating (purple nutsedge; [1]): 0
Plant response rating, Nutsedge (purple nutsedge; Preemergence, Rate 62 g/ha): 0
Plant response rating, Nutsedge (purple nutsedge; Preemergence, Rate 125 g/ha): 0
Nutsedge plant response rating (purple nutsedge; [2]): 0
Nutsedge plant response rating (purple nutsedge; [3]): 0
Nutsedge plant response rating (purple nutsedge; [4]): 0
Nutsedge plant response rating (purple nutsedge; [5]): 0
Sugarbeets plant response rating (sugar beet; [1]): 0
Plant response rating, Sugarbeets (sugar beet; Preemergence, Rate 62 g/ha): 0
Plant response rating, Sugarbeets (sugar beet; Preemergence, Rate 125 g/ha): 2
Sugarbeets plant response rating (sugar beet; [2]): 3
Sugarbeets plant response rating (sugar beet; [3]): 5
Sugarbeets plant response rating (sugar beet; [4]): 0
Sugarbeets plant response rating (sugar beet; [5]): 0
Redroot pigweed plant response rating (pigweed; [1]): 0
Plant response rating, Redroot pigweed (pigweed; Preemergence, Rate 62 g/ha): 3
Plant response rating, Redroot pigweed (pigweed; Preemergence, Rate 125 g/ha): 9
Redroot pigweed plant response rating (pigweed; [2]): 9
Redroot pigweed plant response rating (pigweed; [3]): 10
Redroot pigweed plant response rating (pigweed; [4]): 0
Redroot pigweed plant response rating (pigweed; [5]): 0
Giant foxtail plant response rating (giant foxtail; [1]): 5
Giant foxtail plant response rating (giant foxtail; [6]): 9
Plant response rating, Giant foxtail (giant foxtail; [7]): 7
Plant response rating, Giant foxtail (giant foxtail; [8]): 10
Giant foxtail plant response rating (giant foxtail; [2]): 10
Giant foxtail plant response rating (giant foxtail; [3]): 10
Giant foxtail plant response rating (giant foxtail; [4]): 2
Giant foxtail plant response rating (giant foxtail; [5]): 5
Cocklebur plant response rating (cocklebur; [1]): 0
Cocklebur plant response rating (cocklebur; [6]): 0
Plant response rating, Cocklebur (cocklebur; [7]): 0
Plant response rating, Cocklebur (cocklebur; [8]): 0
Cocklebur plant response rating (cocklebur; [2]): 0
Cocklebur plant response rating (cocklebur; [3]): 0
Cocklebur plant response rating (cocklebur; [4]): 0
Cocklebur plant response rating (cocklebur; [5]): 0
Morningglory plant response rating (morningglory; [1]): 2
Plant response rating, Morningglory (morningglory; Preemergence, Rate 62 g/ha): 0
Plant response rating, Morningglory (morningglory; Preemergence, Rate 125 g/ha): 0
Morningglory plant response rating (morningglory; [2]): 0
Morningglory plant response rating (morningglory; [3]): 0
Morningglory plant response rating (morningglory; [4]): 0
Morningglory plant response rating (morningglory; [5]): 1
Plant response rating, Barnyardgrass (0 to 10 scale, 0 is no effect, 10 is complete control) (bamyardgrass; [9]): 0
Barnyardgrass plant response rating (0 to 10 scale, 0 is no effect, 10 is complete control) (bamyardgrass; [10]): 0
Barnyardgrass plant response rating (bamyardgrass; [11]): 0
Barnyardgrass plant response rating (bamyardgrass; [12]): 0
Rape plant response rating (rape; [1]): 0
Plant response rating, Rape (rape; Preemergence, Rate 62 g/ha): 0
Plant response rating, Rape (rape; Preemergence, Rate 125 g/ha): 2
Rape plant response rating (rape; [2]): 2
Rape plant response rating (rape; [3]): 5
Rape plant response rating (rape; [4]): 0
Rape plant response rating (rape; [5]): 0
Blackgrass plant response rating (blackgrass; [1]): 6
Blackgrass plant response rating (blackgrass; [6]): 8
Plant response rating, Blackgrass (blackgrass; [7]): 2
Plant response rating, Blackgrass (blackgrass; [8]): 3
Blackgrass plant response rating (blackgrass; [2]): 6
Blackgrass plant response rating (blackgrass; [3]): 10
Blackgrass plant response rating (blackgrass; [4]): 0
Blackgrass plant response rating (blackgrass; [5]): 2
Crabgrass plant response rating (crabgrass; [1]): 5
Crabgrass plant response rating (crabgrass; [6]): 8
Plant response rating, Crabgrass (crabgrass; [7]): 2
Crabgrass plant response rating (crabgrass; [2]): 4
Crabgrass plant response rating (crabgrass; [3]): 10
Crabgrass plant response rating (crabgrass; [4]): 1
Crabgrass plant response rating (crabgrass; [5]): 1
Wheat plant response rating (wheat; [1]): 0
Plant response rating, Wheat (wheat; Preemergence, Rate 62 g/ha): 0
Plant response rating, Wheat (wheat; Preemergence, Rate 125 g/ha): 0
Wheat plant response rating (wheat; [2]): 0
Wheat plant response rating (wheat; [3]): 0
Wheat plant response rating (wheat; [4]): 0
Wheat plant response rating (wheat; [5]): 0
Plant response rating, Rice (0 to 10 scale, 0 is no effect, 10 is complete control) (rice; [9]): 0
Rice plant response rating (0 to 10 scale, 0 is no effect, 10 is complete control) (rice; [10]): 0
Rice plant response rating (rice; [11]): 0
Rice plant response rating (rice; [12]): 0
Plant response rating, S. Flatsedge (0 to 10 scale, 0 is no effect, 10 is complete control) (smallflower flatsedge; [9]): 0
S. Flatsedge plant response rating (0 to 10 scale, 0 is no effect, 10 is complete control) (smallflower flatsedge; [10]): 0
S. Flatsedge plant response rating (smallflower flatsedge; [11]): 0
S. Flatsedge plant response rating (smallflower flatsedge; [12]): 0
B. signalgrass plant response rating (surinam grass; Postemergence, Rate 250 g/ha, scale 0 to 10, 0 no effect, 10 complete control): 0
B. signalgrass plant response rating (surinam grass; [6]): 0
Plant response rating, B. signalgrass (surinam grass; [7]): 0
Plant response rating, B. signalgrass (surinam grass; [8]): 2
B. signalgrass plant response rating (surinam grass; [2]): 3
B. signalgrass plant response rating (surinam grass; [3]): 5
B. signalgrass plant response rating (surinam grass; [4]): 0
B. signalgrass plant response rating (surinam grass; [5]): 0
Corn plant response rating (corn; [1]): 0
Corn plant response rating (corn; [6]): 2
Plant response rating, Corn (corn; [7]): 0
Plant response rating, Corn (corn; [8]): 0
Corn plant response rating (corn; [2]): 0
Corn plant response rating (corn; [3]): 2
Corn plant response rating (corn; [4]): 0
Corn plant response rating (corn; [5]): 0
Velvetleaf plant response rating (velvetleaf; [1]): 3
Plant response rating, Velvetleaf (velvetleaf; Preemergence, Rate 62 g/ha): 0
Plant response rating, Velvetleaf (velvetleaf; Preemergence, Rate 125 g/ha): 3
Velvetleaf plant response rating (velvetleaf; [2]): 7
Velvetleaf plant response rating (velvetleaf; [3]): 8
Velvetleaf plant response rating (velvetleaf; [4]): 0
Velvetleaf plant response rating (velvetleaf; [5]): 0
Soybean plant response rating (soybean; [1]): 1
Plant response rating, Soybean (soybean; Preemergence, Rate 62 g/ha): 0
Plant response rating, Soybean (soybean; Preemergence, Rate 125 g/ha): 0
Soybean plant response rating (soybean; [2]): 7
Soybean plant response rating (soybean; [4]): 1
Soybean plant response rating (soybean; [5]): 1
Wild oats plant response rating (wild oat; [1]): 0
Plant response rating, Wild oats (wild oat; Preemergence, Rate 62 g/ha): 0
Plant response rating, Wild oats (wild oat; Preemergence, Rate 125 g/ha): 0
Wild oats plant response rating (wild oat; [2]): 2
Wild oats plant response rating (wild oat; [3]): 3
Wild oats plant response rating (wild oat; [4]): 0
Wild oats plant response rating (wild oat; [5]): 0
Plant response rating, Ducksalad (0 to 10 scale, 0 is no effect, 10 is complete control) (duck salad; [9]): 0
Ducksalad plant response rating (0 to 10 scale, 0 is no effect, 10 is complete control) (duck salad; [10]): 0
Ducksalad plant response rating (duck salad; [11]): 0
Ducksalad plant response rating (duck salad; [12]): 0
